Measurements as given in ChEMBL document CHEMBL2203118, “Ethyl 2,4,6-trihydroxybenzoate is an agonistic ligand for liver X receptor that induces cholesterol efflux from macrophages without affecting lipid accumulation in HepG2 cells” (Bioorg Med Chem Lett, 2012).
Active and inactive are the calls of the source. The rule behind the calls is not given here.

Columns and labels:
[1] = target: T1, Liver X receptor (Homo sapiens) (UniProt Q13133+P55055); assay: Agonist activity at LXR in human THP1 monocytes assessed as increase in ABCG1 mRNA level at 100 uM after 48 hrs by qPCR analysis relative to control; format: functional, cell-based
[2] = target: T2, Oxysterols receptor LXR-alpha (Homo sapiens, UniProt Q13133); assay: (§1) Agonist activity at human LXR-alpha assessed as increase in recruitment of Trap 220/Drip2 coactivator peptide by TR-FRET assay; format: functional
T2 sequence (Q13133 whole entry): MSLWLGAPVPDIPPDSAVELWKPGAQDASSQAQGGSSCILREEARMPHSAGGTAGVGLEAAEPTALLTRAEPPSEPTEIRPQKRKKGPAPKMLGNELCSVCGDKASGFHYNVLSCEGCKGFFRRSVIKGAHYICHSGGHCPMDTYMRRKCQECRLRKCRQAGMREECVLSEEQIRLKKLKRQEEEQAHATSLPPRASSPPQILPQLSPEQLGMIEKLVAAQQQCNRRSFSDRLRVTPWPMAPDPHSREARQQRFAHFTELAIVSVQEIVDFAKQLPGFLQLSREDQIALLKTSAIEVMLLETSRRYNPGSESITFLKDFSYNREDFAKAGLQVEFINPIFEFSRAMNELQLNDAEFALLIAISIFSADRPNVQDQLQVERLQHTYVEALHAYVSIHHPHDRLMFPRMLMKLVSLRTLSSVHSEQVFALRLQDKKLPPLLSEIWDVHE

[3] = target: T3, Oxysterols receptor LXR-alpha (Homo sapiens) (UniProt Q13133); assay: as §1; format: functional
T3 sequence (whole entry): T2 sequence (Q13133 whole entry)

[4] = target: T1, Liver X receptor (Homo sapiens); assay: Agonist activity at LXR in human Caco2 cells assessed as increase in ABCG5 mRNA level at 100 uM after 48 hrs by qPCR analysis relative to control; format: functional, cell-based; settings: Caco-2
[5] = target: T3, Oxysterols receptor LXR-alpha (Homo sapiens); assay: Agonist activity at LXR-alpha in human HepG2 cells assessed as reduction in cellular cholesterol level; format: functional, cell-based
[6] = target: T3, Oxysterols receptor LXR-alpha (Homo sapiens); assay: Agonist activity at LXR-alpha in human Caco2 cells assessed as reduction in cellular cholesterol level; format: functional, cell-based; settings: Caco-2
HepG2 [7] = assay: Upregulation of ACOX gene expression in human HepG2 at 100 uM by qPCR analysis relative to control; format: functional, cell-based
[8] = target: T1, Liver X receptor (Homo sapiens); assay: Agonist activity at LXR in human THP1 cells assessed as induction of ABCG1 gene expression at 100 uM after 48 hrs by immunoblot analysis relative to control; format: functional, cell-based; settings: THP-1
[9] = target: T1, Liver X receptor (Homo sapiens); assay: Agonist activity at LXR in human Caco2 cells assessed as increase in ABCA1 mRNA level at 100 uM after 48 hrs by qPCR analysis relative to control; format: functional, cell-based; settings: Caco-2
[10] = Agonist activity at LXR in mouse RAW 264.7 assessed as induction of ABCA1 mRNA expression at 100 uM after 48 hrs by qPCR analysis relative to control; format: functional
[11] = target: T4, Oxysterols receptor LXR-beta (Homo sapiens, UniProt P55055); assay: Transactivation of human LXR-beta transfected in HEK293 cells after 24 hrs by luciferase reporter gene assay; format: cell-based
T4 sequence (P55055 whole entry): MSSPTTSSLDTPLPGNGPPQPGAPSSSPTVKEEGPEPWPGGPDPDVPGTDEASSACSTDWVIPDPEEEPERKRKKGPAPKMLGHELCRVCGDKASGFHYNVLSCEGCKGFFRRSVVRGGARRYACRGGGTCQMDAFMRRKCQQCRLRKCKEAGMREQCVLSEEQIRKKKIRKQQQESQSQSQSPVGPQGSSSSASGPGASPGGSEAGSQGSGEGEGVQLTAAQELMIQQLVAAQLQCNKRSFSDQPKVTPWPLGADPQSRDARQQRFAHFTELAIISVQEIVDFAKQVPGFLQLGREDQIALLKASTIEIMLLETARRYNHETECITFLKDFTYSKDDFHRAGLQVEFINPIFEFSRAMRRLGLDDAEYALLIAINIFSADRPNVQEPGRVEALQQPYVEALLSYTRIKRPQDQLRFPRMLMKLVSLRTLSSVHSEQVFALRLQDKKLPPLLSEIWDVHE

[12] = target: T2, Oxysterols receptor LXR-alpha; assay: Transactivation of human LXR-alpha transfected in HEK293 cells after 24 hrs by luciferase reporter gene assay; format: cell-based
[13] = target: T3, Oxysterols receptor LXR-alpha (Homo sapiens); assay: Agonist activity at LXR-alpha in human THP1 cells assessed as reduced cellular cholesterol concentration; format: functional, cell-based; settings: THP-1
RAW264.7 = assay: Cytotoxicity against mouse RAW264.7 after 48 hrs by MTT assay; format: cell-based; settings: raw264.7, 48 h
[14] = target: T1, Liver X receptor (Homo sapiens); assay: Agonist activity at LXR in human Caco2 cells assessed as decrease in NPC1L1 mRNA level at 100 uM after 48 hrs by qPCR analysis relative to control; format: functional, cell-based; parameters: scale not given: the % may be the effect or the level left; settings: Caco-2
[15] = target: T1, Liver X receptor (Homo sapiens); assay: Agonist activity at LXR in human THP1 cells assessed as increase in ApoE mRNA level at 100 uM after 48 hrs by qPCR analysis relative to control; format: functional, cell-based; settings: THP-1
[16] = target: T5, Oxysterols receptor LXR-beta (Homo sapiens) (UniProt P55055); assay: Binding affinity to human LXR-beta LBD by SPR-Biacore assay
T5 sequence (whole entry): T4 sequence (P55055 whole entry)

HepG2 [17] = assay: Cytotoxicity against human HepG2 cells after 48 hrs by MTT assay; format: cell-based; settings: hepg2, 48 h
HepG2 [18] = assay: Upregulation of SREBP-1 gene expression in human HepG2 cells at 50 to 100 uM by immunoblot analysis; format: ADME, cell-based; settings: hepg2, 100 µM
HepG2 [19] = assay: Reduction in SCD-1 gene expression in human HepG2 cells at 50 uM by qPCR analysis relative to control; format: functional; parameters: scale not given: the % may be the effect or the level left
[20] = target: T6, Peroxisome proliferator-activated receptor alpha (Homo sapiens) (UniProt Q07869); assay: Transactivation of PPAR-alpha transfected in HEK293 cells at 50 to 100 uM after 24 hrs by luciferase reporter gene assay; format: cell-based
T6 sequence (whole entry): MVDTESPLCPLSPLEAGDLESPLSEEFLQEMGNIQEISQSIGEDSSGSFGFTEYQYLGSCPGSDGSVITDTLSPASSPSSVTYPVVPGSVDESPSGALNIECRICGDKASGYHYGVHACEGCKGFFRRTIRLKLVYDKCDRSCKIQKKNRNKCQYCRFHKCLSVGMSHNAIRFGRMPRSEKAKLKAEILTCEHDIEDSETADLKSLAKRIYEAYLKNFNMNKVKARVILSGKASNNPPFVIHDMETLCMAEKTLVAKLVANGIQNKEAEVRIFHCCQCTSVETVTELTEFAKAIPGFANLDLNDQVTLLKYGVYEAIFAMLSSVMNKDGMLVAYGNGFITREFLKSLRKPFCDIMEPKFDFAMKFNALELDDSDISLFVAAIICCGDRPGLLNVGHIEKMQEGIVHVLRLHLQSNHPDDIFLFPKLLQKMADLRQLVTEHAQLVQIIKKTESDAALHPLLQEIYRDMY

CCOC(=O)c1c(O)cc(O)cc1O
fold change (FC) [1]: 5.2
EC50 [2]: 1500 nM
Activity [3]: Dose-dependent effect
fold change (FC) [4]: 12.6
Activity [5]: Dose-dependent effect
Activity [6]: Dose-dependent effect
Activity (HepG2 [7]): Active
Activity [8]: Active
fold change (FC) [9]: 2.1
fold change (FC) [10]: 2.1
EC50 [11]: 37.8 µM
EC50 [12]: 80.8 µM
Activity [13]: Dose-dependent effect
Activity (RAW264.7): Non-toxic
Activity [14]: 33.2%
fold change (FC) [15]: 1.9
Activity [16]: Active
Activity (HepG2 [17]): Non-toxic
Activity (HepG2 [18]): Non-toxic
Activity (HepG2 [19]): 47.6%
Activity [20]: inactive
